{
  "source": "paper PMC2797576",
  "about": "(Biochemistry, 2009)",
  "key": {"[1]": {"molecular_target": "E. coli D-3-phosphoglycerate dehydrogenase (PGDH), native enzyme (Escherichia coli, UniProt P0A9T0)", "assay": "Steady-state inhibition of enzymatic activity of native PGDH by L-serine", "assay_type": "biochemical"}, "[2]": {"molecular_target": "T1, W139F-E360W PGDH (Escherichia coli, UniProt P0A9T0, E360W/W139F)", "assay": "Steady-state inhibition of enzymatic activity of W139F-E360W PGDH by L-serine", "assay_type": "biochemical, E. coli", "conditions": "W139F-E360W mutant"}, "[3]": {"molecular_target": "T1, W139F-E360W PGDH", "assay": "Steady-state serine binding by tryptophan fluorescence quenching titration", "parameters": "species or system E. coli", "conditions": "2.5 μM enzyme subunits, fit to Hill equation (eq 11)"}, "[4]": {"molecular_target": "E. coli PGDH (native, free of bound NADH) (Escherichia coli, UniProt P0A9T0)", "assay": "Pre-steady-state stopped-flow analysis of NADH binding", "conditions": "saturating L-serine versus serine absent"}, "[5]": {"molecular_target": "T1, W139F-E360W PGDH", "assay": "Stopped-flow transient kinetics of L-serine binding", "parameters": "species or system E. coli", "conditions": "for k3: estimated from Figure 9; for k2: forward rate constant of conformational change after binding; for k−3: reverse rate constant of conformational change before binding"}},
  "note": "Marks after values point to notes of the source that are not given here.",
  "data": [
    {"smiles": "N[C@@H](CO)C(=O)O", "note": "[L-serine]", "values": [
      {"measurement": "Hill coefficient for inhibition of enzymatic activity", "setting": "[1]", "result": "1.9 ± 0.1"},
      {"measurement": "Hill coefficient for inhibition of enzymatic activity", "setting": "[2]", "result": "2.2 ± 0.1"},
      {"measurement": "K0.5 for fluorescence quenching", "setting": "[3]", "result": "13.6 ± 0.5"},
      {"measurement": "Increase in the Kd for NADH binding caused by serine, first set of sites", "setting": "[4]", "result": 15, "unit": "fold"},
      {"measurement": "Increase in the Kd for NADH binding caused by serine, other set of sites", "setting": "[4]", "result": 5, "unit": "fold"},
      {"measurement": "k3", "setting": "[5]; kobs1, printed >0–20", "result": "(>0–20 s^−1) ^b"},
      {"measurement": "k2", "setting": "[5]; kobs1", "result": "61 ± 4", "unit": "s⁻¹"},
      {"measurement": "k−3", "setting": "[5]; kobs1", "result": "88 ± 7", "unit": "s⁻¹"},
      {"measurement": "k3", "setting": "[5]; kobs2, printed >0–2", "result": "(>0–2 s^−1) ^b"},
      {"measurement": "k2", "setting": "[5]; kobs2", "result": "161 ± 18", "unit": "s⁻¹"},
      {"measurement": "k−3", "setting": "[5]; kobs2", "result": "166 ± 22", "unit": "s⁻¹"}
    ]}
  ]
}
